Here are results for 14 compounds from EP0607129B1, “METHYLPIPERAZINOAZEPINE DERIVATIVES, THEIR PREPARATION AND USE” ("THERABEL RESEARCH SA/NV", priority 1991, dated 1993).

Where only a bound is given, the exact number is not on record here.

The test system of series [1] is récepteurs muscariniques. Details: species or system rat CFY. Particulars: 1,5 nM (³H) QNB; rat brain homogenate without cerebellum; 25°C, 60 minutes; non-specific binding with atropine 10⁻⁵M; test concentration not given.
Series [2] can be described thus: Catalepsy test (extrapyramidal side effects). Format: in vivo. The conditions noted are these: for léger / faible effet cataleptique à partir de: dose from which a slight (léger, faible) cataleptic effect is seen; for catalepsie pour des doses supérieures à: dose above which catalepsy is seen. From the text:
Voir notamment GRAY W.D., OSTERBERG A.C., RAUH C.E., Arch. Int. Pharmacodyn. 134, 198, 1961 et COSTALL B., OLLEY J.E., Neuropharmacology 10, 297, 1971.
Ce test est représentatif des effets extrapyramidaux présents dans de nombreux neuroleptiques (effet secondaire non souhaitable). Les composés de l'invention provoquent très peu de catalepsie et paraissent donc dénués de cet effet secondaire non souhaitable.

Series [3] relates to apomorphine. In words: In vivo apomorphine antagonism test.
Setting [4] is: graded + to +++++, 20 mg/kg for the compounds.

As to `CN1CCN(C2=Nc3ccccc3Sc3ccc(Cl)cc32)CC1` [Clothiapine, reference compound], in series [1], the “Inhibition, % (binding de ³H QNB)” value is 38,05%.

On to `CN1CCN(C2=Nc3cc(Cl)ccc3Nc3ccccc32)CC1` [Clozapine, reference compound], for which the “léger / faible effet cataleptique à partir de” value in series [2] is on record as at least 20 mg/kg. In addition, in series [3] (clozapine at 20 mg/g (so in the source)), the “Test d'antagonisme a l'apomorphine: intensité de l'activité” value (“Test d'antagonisme a l'apomorphine” for short) is listed as “+”. Take `CN1CCN(C2=Nc3ccccc3Nc3ccncc32)CC1` [Exemple 1, 11-(4-méthylpipérazin-1-yl)-5H-pyrido(4,3-b)benzo-1,5-diazépine]: the “catalepsie pour des doses supérieures à” value in series [2] is above 40 mg/kg. For the same compound, the “Inhibition, % (binding de ³H QNB)” value in series [1] is listed as 4,48%. As for `CN1CCN(C2=Nc3cccnc3Sc3ccc(Cl)cc32)CC1.O=C(O)/C=C/C(=O)O` [Exemple 3, Fumaratede 8-chloro-6-(4-méthylpipérazin-1-yl)pyrido(2,3-b)benzo-1,4-thiazépine], in series [2], the “catalepsie pour des doses supérieures à” value is above 40 mg/kg. With `CN1CCN(C2=Nc3ccccc3Oc3ncccc32)CC1.O=C(O)/C=C\C(=O)O` [Exemple 4, Maléatede 5-(4-méthylpipérazin-1-yl)pyrido(2,3-b)benzo-1,5-oxazépine], in series [2], the “léger / faible effet cataleptique à partir de” value is recorded as at least 20 mg/kg. Regarding `CN1CCN(C2=Nc3cc(Cl)ccc3Oc3ncccc32)CC1.O=C(O)/C=C/C(=O)O` [Exemple 5, Fumaratede 8-chloro-5-(4-méthylpipérazin-1-yl)pyrido(2,3-b)benzo-1,5-oxazépine], the “Test d'antagonisme a l'apomorphine” value in series [3] (setting [4]) is given as “+”. In the case of `CN1CCN(C2=Nc3cccnc3Oc3ccccc32)CC1.O=C(O)/C=C/C(=O)O` [Exemple 7, Fumaratede 6-(4-méthylpipérazin-1-yl)pyrido(2,3-b)benzo-1,4-oxazépine], in series [3] (setting [4]), the “Test d'antagonisme a l'apomorphine” value was “+”. Turning to `CN1CCN(C2=Nc3cccnc3Nc3ccc(Cl)cc32)CC1` [Exemple 10, 8-chloro-6-(4-méthylpipérazin-1-yl)-11H-pyrido(2,3-b)benzo-1,4-diazépine], in series [1], the “Inhibition, % (binding de ³H QNB)” value is 62,08%. With `Cc1ccc2c(c1)C(N1CCN(C)CC1)=Nc1cccnc1N2` [Exemple 11, 6-(4-méthylpipérazin-1-yl)-8-méthyl-11H-pyrido(2,3-b)benzo-1,4-diazépine], in series [1], the “Inhibition, % (binding de ³H QNB)” value is on record as 67,3%.

On to `CN1CCN(C2=Nc3cccnc3Nc3cc(Cl)ccc32)CC1` [Exemple 12, 9-chloro-6-(4-méthylpipérazin-1-yl)-11H-pyrido(2,3-b)benzo-1,4-diazépine], for which the “Test d'antagonisme a l'apomorphine” value in series [3] (setting [4]) was “+”. Same read-out and setting: to `CN1CCN(C2=Nc3cccnc3Nc3ccc(F)cc32)CC1` [Exemple 13, 8-fluoro-6-(4-méthylpipérazin-1-yl)-11H-pyrido(2,3-b)benzo-1,4-diazépine] belongs “+”. Regarding `CN1CCN(C2=Nc3cccnc3N(C=O)c3ccccc32)CC1` [Exemple 17, 11-formyl-6-(4-méthylpipérazin-1-yl)-11H-pyrido(2,3-b)benzo-1,4-diazépine], the “Inhibition, % (binding de ³H QNB)” value in series [1] is given as 43,38%. Consider `CN1CCN(C2=Nc3cnccc3Sc3ccccc32)CC1` [Exemple 18, 10-(4-méthylpipérazin-1-yl)pyrido(4,3-b)benzo-1,4-thiazépine], for which, in series [1], the “Inhibition, % (binding de ³H QNB)” value is given as 57,61%.

As for `O=C(CCCN1CCC(O)(c2ccc(Cl)cc2)CC1)c1ccc(F)cc1` [Halopéridol, reference compound], the “Test d'antagonisme a l'apomorphine” value in series [3] (halopéridol at 0,63 mg/kg) was “+++++”.
